Measured values reported in PubChem BioAssay AID276 (DTP/NCI, 2004).
Several values for one entry are separate records, joined by “and”; a condition that tells them apart may be missing. Identical values can stand only once. Inconclusive results and toxic doses are left out.

Tested on: B6C3F1 mice, Lewis lung carcinoma iv, survival T/C
Assay: NCI In Vivo Anticancer Drug Screen. Data for tumor model Lewis Lung Carcinoma (intravenous) in B6C3F1 mice
Details: endpoint: median survival time, schedule: Q01DX009 (ip), higher = longer survival
Method in brief: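 Tumors were transplanted into mice, which were then dosed with compound or vehicle. Survival was recorded in each group, and the treated figure was divided by the control figure.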

[1] = dose: 12.5 mg/kg/injection, vehicle: saline
[2] = dose: 25.0 mg/kg/injection, vehicle: saline
[3] = dose: 25.0 mg/kg/injection, vehicle: saline with Tween-80
[4] = dose: 50.0 mg/kg/injection, vehicle: saline with Tween-80
[5] = dose: 100.0 mg/kg/injection, vehicle: saline with Tween-80
[6] = dose: 400.0 mg/kg/injection, vehicle: saline with Tween-80
[7] = dose: 25.0 mg/kg/injection, vehicle: Klucel (hydroxypropylcellulose) (HPC)
[8] = dose: 50.0 mg/kg/injection, vehicle: Klucel (hydroxypropylcellulose) (HPC)
[9] = dose: 100.0 mg/kg/injection, vehicle: Klucel (hydroxypropylcellulose) (HPC)
[10] = dose: 50.0 mg/kg/injection, vehicle: saline
[11] = dose: 100.0 mg/kg/injection, vehicle: saline
[12] = dose: 200.0 mg/kg/injection, vehicle: saline

`C(=N/NC1=NCCN1)/c1c2ccccc2c(/C=N\NC2=NCCN2)c2ccccc12` was tested. Which T/C (dose: 3.12 mg/kg/injection, vehicle: saline) did it give?
The T/C was 110 % of control.

What about the T/C [1] of the same compound?
Its T/C is 100 % of control.

What about the T/C [2] of the same compound?
The T/C was 100 % of control.

How did the T/C (dose: 37.5 micrograms/kg/injection, vehicle: Klucel (hydroxypropylcellulose) (HPC)) turn out when `CCCCCn1c(C)cc(/C=C\c2ccc3cc(C)ccc3[n+]2C)c1C` was run?
The T/C was 107 % of control.

What about the T/C (dose: 75.0 micrograms/kg/injection, vehicle: Klucel (hydroxypropylcellulose) (HPC)) of the same compound?
The T/C was 109 % of control.

And the T/C (dose: 150.0 micrograms/kg/injection, vehicle: Klucel (hydroxypropylcellulose) (HPC))?
Its T/C is 104 % of control.

What about the T/C (dose: 300.0 micrograms/kg/injection, vehicle: Klucel (hydroxypropylcellulose) (HPC)) of the same compound?
Its T/C is 97 % of control.

`C[Si](C)(CCl)N[Si](C)(C)CCl` was tested. Which T/C [3] did it give?
Its T/C is 104 % of control.

And the T/C [4]?
Its T/C is 99 % of control.

What about the T/C [5] of the same compound?
Its T/C is 107 % of control.

And the T/C [6]?
Its T/C is 105 % of control.

Which results are given for `C=C(C)[C@@H]1CCc2c(O)c(O)c(=O)cc(C)c2C1`?
T/C (dose: 3.12 mg/kg/injection, vehicle: Klucel (hydroxypropylcellulose) (HPC)): 90 % of control; T/C (dose: 6.25 mg/kg/injection, vehicle: Klucel (hydroxypropylcellulose) (HPC)): 92 % of control; T/C [7]: 102 % of control; T/C [8]: 97 % of control; T/C [9]: 90 % of control

Which T/C (dose: 50.0 mg/kg/injection, vehicle: water) does the source give for `BrCCC1(CCBr)CCCCC1` here?
Its T/C is 104 % of control.

What about the T/C (dose: 100.0 mg/kg/injection, vehicle: water) of the same compound?
The T/C was 103 % of control.

And the T/C (dose: 200.0 mg/kg/injection, vehicle: water)?
Its T/C is 98 % of control.

What about the T/C (dose: 400.0 mg/kg/injection, vehicle: water) of the same compound?
Its T/C is 96 % of control.

What does the source list for `C[C@]12CC[C@H](O)CC1=CC[C@@H]1[C@@H]2CC[C@]2(C)C(=O)CC[C@@H]12`?
T/C [3]: 105 % of control; T/C [4]: 100 % of control; T/C [5]: 101 % of control; T/C (dose: 200.0 mg/kg/injection, vehicle: saline with Tween-80): 94 % of control; T/C [6]: 99 % of control

For `CNNCc1ccc(C(=O)NC(C)C)cc1`, which T/C [9] is on record?
The T/C was 153 % of control.

And the T/C (dose: 200.0 mg/kg/injection, vehicle: Klucel (hydroxypropylcellulose) (HPC))?
Its T/C is 151 % of control.

And the T/C (dose: 400.0 mg/kg/injection, vehicle: Klucel (hydroxypropylcellulose) (HPC))?
The T/C was 200 % of control.

What does the source list for `Oc1ccc(CCl)c2cccnc12`?
T/C [1]: 105 % of control; T/C [2]: 103 % of control; T/C [10]: 103 % of control; T/C [11]: 98 % of control

Which T/C (dose: 1.0 mg/kg/injection, vehicle: sodium bicarbonate) does the source give for `CN(Cc1cnc2nc(N)nc(N)c2n1)c1ccc(C(=O)N[C@@H](CCC(=O)O)C(=O)O)cc1` here?
The T/C was 102 % of control.

And the T/C (dose: 2.0 mg/kg/injection, vehicle: sodium bicarbonate)?
Its T/C is 107 % of control and 88 % of control.

And the T/C (dose: 4.0 mg/kg/injection, vehicle: sodium bicarbonate)?
The T/C was 96 % of control and 102 % of control.

Which results are given for `CCCCCNc1ncnc2c(C)[nH]nc12`?
T/C [7]: 103 % of control; T/C [8]: 94 % of control; T/C [9]: 108 % of control

With `O=C(Nc1cccc(Cl)c1)ON1C(=O)C2C(C1=O)C1(Cl)C(Cl)C(Cl)C2(Cl)C1(Cl)Cl` (stereo not drawn) as the compound, how does the T/C [3] read?
Its T/C is 95 % of control.

What about the T/C [4] of the same compound?
The T/C was 97 % of control.

And the T/C [5]?
Its T/C is 87 % of control.

Which T/C [2] does the source give for `Nc1ncnc2c1cnn2Cc1ccc(Cl)cc1` here?
The T/C was 94 % of control.

And the T/C [10]?
Its T/C is 106 % of control.

What about the T/C [11] of the same compound?
The T/C was 111 % of control.

What about the T/C [12] of the same compound?
Its T/C is 93 % of control.

With `C[Si](C)(C)O/C=C1/CCOC1=O` as the compound, how does the T/C [1] read?
Its T/C is 93 % of control.

And the T/C [2]?
Its T/C is 101 % of control.

And the T/C [10]?
The T/C was 94 % of control.

What about the T/C [11] of the same compound?
The T/C was 97 % of control.

And the T/C [12]?
The T/C was 91 % of control.

And the T/C (dose: 400.0 mg/kg/injection, vehicle: saline)?
The T/C was 94 % of control.

How did the T/C [3] turn out when `Nc1ccc2c(c1)CN1C(=O)c3ccccc3C1=N2` was run?
Its T/C is 117 % of control.

And the T/C [4]?
The T/C was 116 % of control.
